Reference: article PMC12386606, “Evaluation of the In Vitro Blood–Brain Barrier Transport of Ferula persica L. Bioactive Compounds” (International Journal of Molecular Sciences, 2025)
Values joined by “and” are separate entries in the source; they are usually repeats but may differ in a detail not shown here. Equal values may be shown once. Where a name gives a salt, the structure may show the parent alone.

What was measured:
[1] = oil/water partition coefficient; Table 1; ref PubChem; cited from earlier work
HBMEC cells = assay: Blood–brain barrier transport study in HBMEC Transwell monolayer; details: for AerExt Te (%) ± SD 2 h / AerExt Te (%) ± SD 4 h / AerExt Te (%) ± SD 24 h: AerExt 40 µg mL^−1 apical; for AerExt Te (%) ± SD 2 h / AerExt Te (%) ± SD 4 h / AerExt Te (%) ± SD 24 h / RootExt Te (%) ± SD 2 h / RootExt Te (%) ± SD 4 h / RootExt Te (%) ± SD 24 h: n.q. = not quantified in the basolateral compartment; for RootExt Te (%) ± SD 2 h / RootExt Te (%) ± SD 4 h / RootExt Te (%) ± SD 24 h: RootExt 20 µg mL^−1 apical; for crossing of the HBMEC-BBB: AerExt 40 µg mL^−1 / RootExt 20 µg mL^−1, 2, 4, 24 h; for abundance in the apical compartment relative to the basolateral compartment (times higher) / Te of newly formed sulfated metabolites: after AerExt 40 µg mL^−1 treatment of HBMEC; for Te of newly formed sulfated metabolites: tentatively identified metabolites; for AerExt Te (%) ± SD 24 h / RootExt Te (%) ± SD 24 h / Te of newly formed sulfated metabolites: 24 h
Experimental: After the toxicity evaluation, the HBMEC cell line was also used as a simplified in vitro model of the BBB endothelium. Cells were seeded at a density of 1.6 × 10^5 cells/cm^2 in 12-well Transwell® plates (Corning Costar Corp., Corning, USA) with a pore diameter of 0.4 μm, pre-coated with type I rat tail collagen (100 μg mL^−1) [55]. The culture medium was renewed every 2 days until a monolayer cell structure was formed (see Supplementary Figure S2), and transport experiments were initiated after 10 days. In transport experiments, the medium in the apical (upper) compartment of the Transwell system was removed, and 0.5 mL of AerExt or RootExt at a concentration of 40 μg mL^−1 and 20 μg mL^−1, respectively, was added to these compartments (applied in duplicate). Also, a medium containing 0.4% (v/v) ethanol was used as control group. The basolateral (lower) compartments were filled with 1.5 mL of fresh culture medium. The cells were incubated under these conditions for 2, 4, and 24 h.
At the end of the incubation periods, media samples were collected from both chambers and lyophilized using a freeze-drying system from Martin Christ (Osterode am Harz, Germany). The samples were stored at −80 °C until analysis. The collected samples were subjected to chemical analyses to evaluate the ability of bioactive compounds contained in the extracts to pass through the cell monolayer.
The transport efficiency (Te) of bioactive substances was calculated based on Equation (3), described by [56]:Te (%) = CLower/CUpper × 100(3)
This calculation was performed to understand whether the compound crosses the cell layer and how efficiently it is transported.
For this purpose, 0.2 mL of cold water (H2O) was added to the samples, and the samples were vortexed for 10 s. Then, 0.8 mL of cold methanol was added and vortexed again for 10 s. Then, the mixture was centrifuged at 14,000 rpm for 5 min, and the supernatant was carefully transferred to a 1.5 mL Eppendorf tube and dried in a SpeedVac device at 40 °C and 13 bar pressure. Finally, the dried samples were resuspended in 25 μL of pure ethanol for their subsequent analysis.
For HPLC-Q-TOF MS/MS analysis, aliquots of 2 μL were injected into an HPLC model 1290 coupled to a Q-TOF series 6540 (Agilent Technologies, Waldbronn, Germany). For GC-Q-TOF MS analysis, aliquots of 1 μL were injected with a split ratio of 1:10 into a GC model 7890B coupled to a Q-TOF series 7200 (Agilent Technologies, Waldbronn, Germany). The HPLC-MS and GC-MS chromatograms were processed using the Agilent Mass Hunter Qualitative software (version B.10.0) to verify the retention time and exact mass of the compounds previously reported by us [25] and to extract their peak area to calculate the BBB permeability.

[2] = Parallel artificial membrane permeability assay for the blood–brain barrier (PAMPA-BBB); details: for RootExt log Pe: compound within RootExt donor solution; for RootExt log Pe / AerExt log Pe: 37 °C, 4 h, PBS pH 7.4, n.q. = not quantified in the acceptor plate; for AerExt log Pe: compound within AerExt donor solution; for AerExt Cross BBB Potential: compound within AerExt
Experimental: The permeability of bioactive compounds from AerExt and RootExt across the BBB was assessed using the PAMPA-BBB assay, following the methodology described by [11]. Firstly, the BBB solution was prepared by dissolving 8 mg of PBL and 4 mg of cholesterol in 600 μL of n-dodecane. The initial donor solution was prepared by mixing 1 mL of AerExt or RootExt (at 10 mg mL^−1 in EtOH) with 1 mL of buffer (PBS, pH = 7.4, 10 mM). The filter membrane of the donor plate was coated with 5 μL of BBB solution. The acceptor plate was filled with 350 μL of buffer, and the donor plate was carefully placed on top of the acceptor plate to form a “sandwich-like” assembly. Subsequently, 350 μL of the donor solution was added to the donor plate, which was then covered and incubated at 37 °C for 4 h in the dark. After the incubation time, 300 μL of the solution was collected from each plate, transferred into separate vials, and evaporated using a SpeedVac system at 40 °C under 13 mbar pressure. The dried acceptor and donor solutions were dissolved in 50 μL of pure EtOH before being subjected to HPLC-Q-TOF-MS/MS and GC-Q-TOF-MS analysis. Permeability (Pe) across the PAMPA-BBB of the bioactive compound was calculated according to Equation (1) [54], with modifications in concentration rates.Pe = −ln[1 − CA(t)/Cequilibrium]/(A × (1/VD + 1/VA) × t)(1)
Cequilibrium was calculated according to Equation (2):Cequilibrium = [CD(t) × VD + CA(t) × VA]/(VD + VA)(2)
The HPLC-MS and GC-MS chromatograms were processed using the Agilent Mass Hunter Qualitative software (version B.10.0) to verify the retention time and exact mass of the compounds previously reported by us [25] and to extract their peak area to calculate the BBB permeability.

CCOC(=O)/C=C/c1ccc(O)c(O)c1 [Ethyl caffeate]
log p [1]: 2.6

COc1cc(/C=C/C(=O)O)ccc1O [Ferulic acid]
AerExt Te (%) ± SD 2 h (HBMEC cells): 1.9 ± 0.2% | AerExt Te (%) ± SD 2 h (HBMEC cells; listed as ferulic acid): 2% | AerExt Te (%) ± SD 4 h (HBMEC cells): 1.9 ± 0.2% | AerExt Te (%) ± SD 24 h (HBMEC cells): 19.8 ± 10.3% | AerExt Te (%) ± SD 24 h (HBMEC cells; listed as ferulic acid): 20% | RootExt Te (%) ± SD 2 h (HBMEC cells): n.q. | RootExt Te (%) ± SD 4 h (HBMEC cells): n.q. | RootExt Te (%) ± SD 24 h (HBMEC cells): n.q. | RootExt log Pe [2]: n.q.

COc1cc2ccc(=O)oc2c(O)c1OC [Fraxidin]
log p [1]: 1.5 | AerExt log Pe [2]: −4.82 | RootExt log Pe [2]: −4.81

CC(=O)OC(C)(C)[C@@H]1CC[C@H](C)C2=C(C1)[C@@H](C)CC2 [Guaiol acetate]
log p [1]: 3.6 | AerExt log Pe [2]: n.q. | RootExt log Pe [2]: −5.05

C[C@H]1CC[C@@H](C(C)(C)O)CC2=C1CC[C@@H]2C [Guaiol]
log p [1]: 3.1 | AerExt log Pe [2]: n.q. | RootExt log Pe [2]: n.q.

COc1cc2ccc(=O)oc2c(OC)c1O [Isofraxidin]
log p [1]: 1.5 | AerExt Te (%) ± SD 2 h (HBMEC cells): n.q. | AerExt Te (%) ± SD 4 h (HBMEC cells): n.q. | AerExt Te (%) ± SD 24 h (HBMEC cells): n.q. | RootExt Te (%) ± SD 2 h (HBMEC cells): n.q. | RootExt Te (%) ± SD 4 h (HBMEC cells): n.q. | RootExt Te (%) ± SD 24 h (HBMEC cells): 30.5 ± 6.6%

O=c1c(OC2OC(CO)C(O)C(O)C2O)c(-c2ccc(O)c(O)c2)oc2cc(O)cc(O)c12 (stereo not drawn) [Isoquercetrin]
log p [1]: −0.2 | AerExt log Pe [2]: n.q. | AerExt Cross BBB Potential ([2]; PAMPA-BBB): – | RootExt log Pe [2]: n.q. | RootExt Cross BBB Potential ([2]; compound within RootExt, PAMPA-BBB): –

CC(=O)O[C@@H]1[C@@H](OC(C)=O)[C@@H](O)[C@H](Oc2c(-c3ccc(O)cc3)oc3cc(O)cc(O)c3c2=O)O[C@H]1C [Kaempferol 3-O-(3″,4″-di-O-acetyl-a-L-rhamnopyranoside)]
log p [1]: −0.9 | AerExt log Pe [2]: n.q.

CC1(C)C[C@H](O)C[C@@]2(C)OC(=O)C=C12 [Loliolide]
log p [1]: 1.0 | AerExt Te (%) ± SD 2 h (HBMEC cells): 6.2 ± 0.7% | AerExt Te (%) ± SD 4 h (HBMEC cells): 12.1 ± 0.8% | AerExt Te (%) ± SD 24 h (HBMEC cells): 12.4 ± 0.8%

O=c1cc(-c2ccc(O)c(O)c2)oc2cc(O[C@@H]3O[C@H](CO)[C@@H](O)[C@H](O)[C@H]3O)cc(O)c12 [Luteolin 7-glucoside]
log p [1]: 0.5 | AerExt Cross BBB Potential ([2]; PAMPA-BBB): + (log Pe < −6.5) | RootExt log Pe [2]: n.q.

O=c1cc(-c2ccc(O)c(O)c2)oc2cc(O)cc(O)c12 [Luteolin]
crossing of the HBMEC-BBB (HBMEC cells): could not cross the HBMEC-BBB | Papp at 4 h ([2]; PAMPA, pH 7.4): 26.3 ×10⁻⁶ cm/s

C=CCc1cc(OC)c2c(c1)OCO2 [Myristicin]
log p [1]: 2.9 | RootExt log Pe [2]: n.q.

c1ccc2c(c1)[nH]c1cnccc12 [Norharman]
log p [1]: 3.2 | AerExt Te (%) ± SD 2 h (HBMEC cells): 2.3 ± 0.1% | AerExt Te (%) ± SD 4 h (HBMEC cells): 5.3 ± 1.4% | AerExt Te (%) ± SD 24 h (HBMEC cells): 4.1 ± 0.2%

C[C@@H]1CC[C@H]2C(C(=O)O)=C[C@@H]3[C@@H](O)C(C)(C)C[C@@]132 [Pentalenic acid]
log p [1]: 2.7

O=Cc1ccc(O)c(O)c1 [Protocatechuic aldehyde]
log p [1]: 1.3 | crossing of the HBMEC-BBB (HBMEC cells): could not cross the HBMEC-BBB | AerExt Te (%) ± SD 2 h (HBMEC cells): n.q. | AerExt Te (%) ± SD 4 h (HBMEC cells): n.q. | AerExt Te (%) ± SD 24 h (HBMEC cells): n.q. | RootExt Te (%) ± SD 2 h (HBMEC cells): n.q. | RootExt Te (%) ± SD 4 h (HBMEC cells): n.q.

O=C(O)[C@]1(O)C[C@@H](O)[C@@H](O)[C@H](O)C1 [Quinic acid]
log p [1]: −2.4 | AerExt Cross BBB Potential ([2]; PAMPA-BBB): + (log Pe < −6.5)

CC1CCCC2(C)CCC(C(C)(C)O)C=C12 (stereo not drawn) [Rosifoliol]
log p [1]: 3.9 | AerExt log Pe [2]: n.q. | RootExt log Pe [2]: n.q.

CC1=CCC[C@]2(C)CCC(=C(C)C)C[C@@H]12 [Selina-3,7(11)-diene]
log p [1]: 4.4 | AerExt log Pe [2]: n.q. | RootExt log Pe [2]: n.q.

COc1cc(/C=C/C(=O)O)ccc1OS(=O)(=O)O [ferulic acid sulfate]
abundance in the apical compartment relative to the basolateral compartment (times higher) (HBMEC cells): ~40 times | Te of newly formed sulfated metabolites (HBMEC cells): 2.3%

C=C(C)[C@@H]1CC[C@@]2(C)CCC(=O)C(C)=C2C1 [α-cyperone]
log p [1]: 3.8 | AerExt Te (%) ± SD 2 h (HBMEC cells): 12.2 ± 0.1% | AerExt Te (%) ± SD 4 h (HBMEC cells): 25.1 ± 1.4% | AerExt Te (%) ± SD 24 h (HBMEC cells): 56.5 ± 6.5% | RootExt Te (%) ± SD 2 h (HBMEC cells): 15.4 ± 2.6% | RootExt Te (%) ± SD 4 h (HBMEC cells): 20.1 ± 12.0% | RootExt Te (%) ± SD 24 h (HBMEC cells): 187% and 187.3 ± 12.5%

apigenin sulfate
abundance in the apical compartment relative to the basolateral compartment (times higher) (HBMEC cells): ~40 times | Te of newly formed sulfated metabolites (HBMEC cells): 2.7%
